Source: the supplement of paper PMC10307832

Legend:
Test in all cases: relative viability (nuclei count vs DMSO), 5 days (fraction); higher = more cells survive
NCI-H1944 = tested on: NCI-H1944
In short: (§1)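 One day after seeding in 1536-well plates, lung cancer cell lines were dosed by pin tool. Dosing was either single-drug or a fixed anchor-drug dose plus five library-drug doses (not always all listed) in √10 steps. After 5 days, nuclei were stained in one fix-and-stain step and counted on 4× images, and relative viability is the nuclei count of treated wells over that of vehicle wells, given as the median of duplicate plates.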

NCI-H1734 = tested on: NCI-H1734
In short: as §1

NCI-H23 = tested on: NCI-H23
In short: as §1

LC-2-ad = tested on: LC-2-ad
In short: as §1

NCI-H1993 = tested on: NCI-H1993
In short: as §1

EMC-BAC-2 = tested on: EMC-BAC-2
In short: as §1

HCC-78 = tested on: HCC-78
In short: as §1

ABC-1 = tested on: ABC-1
In short: as §1

HCC-366 = tested on: HCC-366
In short: as §1

ChaGo-K-1 = tested on: ChaGo-K-1
In short: as §1

LK-2 = tested on: LK-2
In short: as §1

A-427 = tested on: A-427
In short: as §1

HARA = tested on: HARA
In short: as §1

HCC-15 = tested on: HCC-15
In short: as §1

NCI-H2405 = tested on: NCI-H2405
In short: as §1

NCI-H838 = tested on: NCI-H838
In short: as §1

NCI-H1793 = tested on: NCI-H1793
In short: as §1

C[C@@H]1CN(CC(=O)Nc2ccc3c(c2)Cc2cccc(-c4cc(=O)cc(N5CCOCC5)o4)c2S3)C[C@H](C)O1 + NC(=O)Nc1cc(-c2cccc(F)c2)sc1C(=O)N[C@H]1CCCNC1 [AZD7762] (partner 0.2 µM)
relative viability (NCI-H1944; first compound 0.1265 µM): 0.561 | relative viability (NCI-H1944; first compound 0.4 µM): 0.605 | relative viability (NCI-H1944; first compound 4 µM): 0.396 | relative viability (NCI-H1734; first compound 0.04 µM): 0.569 | relative viability (NCI-H1734; first compound 0.1265 µM): 0.684 | relative viability (NCI-H1734; first compound 0.4 µM): 0.643 | relative viability (NCI-H1734; first compound 4 µM): 0.634 | relative viability (NCI-H23; first compound 0.04 µM): 0.238 | relative viability (NCI-H23; first compound 0.1265 µM): 0.22 | relative viability (NCI-H23; first compound 0.4 µM): 0.226 | relative viability (NCI-H23; first compound 4 µM): 0.18 | relative viability (LC-2-ad; first compound 0.04 µM): 0.838 | relative viability (LC-2-ad; first compound 0.1265 µM): 0.758 | relative viability (LC-2-ad; first compound 0.4 µM): 0.86 | relative viability (LC-2-ad; first compound 4 µM): 0.807 | relative viability (NCI-H1993; first compound 0.04 µM): 0.752 | relative viability (NCI-H1993; first compound 0.1265 µM): 0.737 | relative viability (NCI-H1993; first compound 0.4 µM): 0.611 | relative viability (NCI-H1993; first compound 4 µM): 0.55 | relative viability (EMC-BAC-2; first compound 0.04 µM): 1.1 | relative viability (EMC-BAC-2; first compound 0.1265 µM): 1.15 | relative viability (EMC-BAC-2; first compound 0.4 µM): 1.08 | relative viability (EMC-BAC-2; first compound 4 µM): 1.24 | relative viability (HCC-78; first compound 0.04 µM): 0.502 | relative viability (HCC-78; first compound 0.1265 µM): 0.642 | relative viability (HCC-78; first compound 0.4 µM): 0.479 | relative viability (HCC-78; first compound 4 µM): 0.66 | relative viability (ABC-1; first compound 0.1265 µM): 0.742 | relative viability (ABC-1; first compound 0.4 µM): 1.52 | relative viability (ABC-1; first compound 4 µM): 0.971 | relative viability (HCC-366; first compound 0.04 µM): 0.247 | relative viability (HCC-366; first compound 0.1265 µM): 0.253 | relative viability (HCC-366; first compound 0.4 µM): 0.163 | relative viability (HCC-366; first compound 4 µM): 0.184 | relative viability (ChaGo-K-1; first compound 0.04 µM): 0.836 | relative viability (ChaGo-K-1; first compound 0.1265 µM): 0.855 | relative viability (ChaGo-K-1; first compound 0.4 µM): 0.847 | relative viability (ChaGo-K-1; first compound 4 µM): 0.799 | relative viability (LK-2; first compound 0.04 µM): 0.331 | relative viability (LK-2; first compound 0.1265 µM): 0.363 | relative viability (LK-2; first compound 0.4 µM): 0.293 | relative viability (LK-2; first compound 4 µM): 0.432 | relative viability (A-427; first compound 0.04 µM): 0.855 | relative viability (A-427; first compound 0.1265 µM): 0.831 | relative viability (A-427; first compound 0.4 µM): 0.73 | relative viability (A-427; first compound 4 µM): 0.635 | relative viability (HARA; first compound 0.04 µM): 0.296 | relative viability (HARA; first compound 0.1265 µM): 0.259 | relative viability (HARA; first compound 0.4 µM): 0.227 | relative viability (HARA; first compound 4 µM): 0.329 | relative viability (HCC-15; first compound 0.04 µM): 1.18 | relative viability (HCC-15; first compound 0.1265 µM): 1.06 | relative viability (HCC-15; first compound 0.4 µM): 1.37 | relative viability (HCC-15; first compound 4 µM): 1.05 | relative viability (NCI-H2405; first compound 0.04 µM): 0.703 | relative viability (NCI-H2405; first compound 0.1265 µM): 0.795 | relative viability (NCI-H2405; first compound 0.4 µM): 0.792 | relative viability (NCI-H2405; first compound 4 µM): 0.676 | relative viability (NCI-H838; first compound 0.04 µM): 0.802 | relative viability (NCI-H838; first compound 0.1265 µM): 0.909 | relative viability (NCI-H838; first compound 0.4 µM): 0.992 | relative viability (NCI-H838; first compound 4 µM): 0.861 | relative viability (NCI-H1793; first compound 0.04 µM): 0.588 | relative viability (NCI-H1793; first compound 0.1265 µM): 0.514 | relative viability (NCI-H1793; first compound 0.4 µM): 0.404 | relative viability (NCI-H1793; first compound 4 µM): 0.25
